The values below come from patent publication US8557741B2, “3-aminocarbonyl-substituted benzoylcyclohexanediones and their use as herbicides” (Bayer CropScience AG, priority 2010, dated 2013).

Type in all cases: in vivo
The test system of assay [1] is VIOTR. Kind of assay: Pre-emergence herbicidal action against harmful plants. An excerpt: (§1) Seeds of monocotyledonous and dicotyledonous weed plants and crop plants are placed in wood-fibre pots in sandy loam and covered with soil. The compounds according to the invention and the compounds known from the prior art, formulated in the form of wettable powders (WP) or as emulsion concentrates (EC), are then applied as aqueous suspension or emulsion at a water application rate of 600 to 800 I/ha (converted) with the addition of 0.2% of wetting agent to the surface of the covering soil. After the treatment, the pots are placed in a greenhouse and kept under good growth conditions for the test plants. The visual assessment of the damage to the test plants is carried out after a trial period of 3 weeks by comparison with untreated controls (herbicidal activity in percent (%): 100% activity=the plants have died, 0% activity=like control plants, —=not tested). The results of comparative table A show the compounds according to the invention have a higher herbicidal activity than the compounds of the greatest structural similarity known from the closest prior art.

The subject of assay [2] is Stellaria media. Described as above. To be noted: 504 h, read-out: Herbicidal action against STEME.
Text: as §1, with “The abbreviations used in the tables below denote: • ABUTH Abutilon theophrasti • AMARE Amaranthus retroflexus • ECHCG Echinochloa crus galli • PHBPU Phartoitis purpureum • STEME Stellaria media • ALOMY Alopecurus myosuroides • AVEFA Avena fatua • MATIN Matricaria inodora • POLCO Fallopia convolvulus • VERPE Veronica persica 1. Pre-emergence Herbicidal Action Against Harmful Plants Seeds” for “Seeds”

In a further assay the test system is Abutilon theophrasti. The description is as above.
Text: as §1, with “The abbreviations used in the tables below denote: • ABUTH Abutilon theophrasti • AMARE Amaranthus retroflexus • ECHCG Echinochloa crus galli • PHBPU Phartoitis purpureum • STEME Stellaria media • ALOMY Alopecurus myosuroides • AVEFA Avena fatua • MATIN Matricaria inodora • POLCO Fallopia convolvulus • VERPE Veronica persica 1. Pre-emergence Herbicidal Action Against Harmful Plants Seeds” for “Seeds”

Assay [3] concerns Amaranthus retroflexus. As to the kind of experiment: Post-emergence herbicidal action against harmful plants. To be noted: 504 h, dosage 20 g/ha, visual rating after about 3 weeks (Table F), read-out: Herbicidal action against AMARE. An excerpt: (§2) The abbreviations used in the tables below denote: • ABUTH Abutilon theophrasti • AMARE Amaranthus retroflexus • ECHCG Echinochloa crus galli • PHBPU Phartoitis purpureum • STEME Stellaria media • ALOMY Alopecurus myosuroides • AVEFA Avena fatua • MATIN Matricaria inodora • POLCO Fallopia convolvulus • VERPE Veronica persica 1. Pre-emergence Herbicidal Action Against Harmful Plants Seeds of monocotyledonous and dicotyledonous weed and crop plants are placed in sandy loam in wood-fibre pots, covered with soil and cultivated in a greenhouse under good growth conditions. 2 to 3 weeks after sowing, the test plants are treated at the one-leaf stage. The compounds according to the invention, formulated in the form of wettable powders (WP) or as emulsion concentrates (EC), are then sprayed as aqueous suspension or emulsion at a water application rate of 600 to 800 I/ha (converted) with the addition of 0.2% of wetting agent onto the green parts of the plants. After the test plants have been kept in the greenhouse under optimum growth conditions for about 3 weeks, the activity of the preparations is rated visually in comparison to untreated controls (herbicidal activity in percent (%): 100% activity=the plants have died, 0% activity=control plants, —=not tested).

The subject of assay [4] is Veronica persica. The assay is described as above. The settings on record: 504 h, dosage 20 g/ha, visual rating after about 3 weeks (Table F), read-out: Herbicidal action against VERPE.
Text: as §2

For assay [5], the system named is Stellaria media. The description is as above. The settings on record: 504 h, dosage 20 g/ha, visual rating after about 3 weeks (Table F), read-out: Herbicidal action against STEME.
Text: as §2

For assay [6], the system named is Phartoitis purpureum. Described as above. The settings on record: 504 h, read-out: Herbicidal action against PHPBU.
Text: as §2

Assay [7] deals with Matricaria inodora. The description is as above. To be noted: Tripleurospermum inodorum, 504 h, read-out: Herbicidal action against MATIN.
Text: as §2

For assay [8], the system named is VIOTR. The description is as above. The method, then: as §2, with “Seeds” for “The abbreviations used in the tables below denote: • ABUTH Abutilon theophrasti • AMARE Amaranthus retroflexus • ECHCG Echinochloa crus galli • PHBPU Phartoitis purpureum • STEME Stellaria media • ALOMY Alopecurus myosuroides • AVEFA Avena fatua • MATIN Matricaria inodora • POLCO Fallopia convolvulus • VERPE Veronica persica 1. Pre-emergence Herbicidal Action Against Harmful Plants Seeds”

Another assay relates to SETVI. As to the kind of experiment: Pre-emergence herbicidal action against harmful plants. The settings on record: dosage 320 g/ha, visual assessment after 3 weeks (Table C).
Text: as §1

In assay [9] the test system is Amaranthus retroflexus. The description is as above. To be noted: 504 h, dosage 320 g/ha, visual assessment after 3 weeks (Table C), read-out: Herbicidal action against AMARE.
Text: as §1, with “The abbreviations used in the tables below denote: • ABUTH Abutilon theophrasti • AMARE Amaranthus retroflexus • ECHCG Echinochloa crus galli • PHBPU Phartoitis purpureum • STEME Stellaria media • ALOMY Alopecurus myosuroides • AVEFA Avena fatua • MATIN Matricaria inodora • POLCO Fallopia convolvulus • VERPE Veronica persica 1. Pre-emergence Herbicidal Action Against Harmful Plants Seeds” for “Seeds”

In assay [10] the test system is Veronica persica. Described as above. To be noted: 504 h, dosage 320 g/ha, visual assessment after 3 weeks (Table A), read-out: Herbicidal action against VERPE.
Text: as §1, with “The abbreviations used in the tables below denote: • ABUTH Abutilon theophrasti • AMARE Amaranthus retroflexus • ECHCG Echinochloa crus galli • PHBPU Phartoitis purpureum • STEME Stellaria media • ALOMY Alopecurus myosuroides • AVEFA Avena fatua • MATIN Matricaria inodora • POLCO Fallopia convolvulus • VERPE Veronica persica 1. Pre-emergence Herbicidal Action Against Harmful Plants Seeds” for “Seeds”

Assay [11] deals with Phartoitis purpureum. Described as above. The settings on record: dosage 320 g/ha, visual assessment after 3 weeks (Table C).
Text: as §1, with “The abbreviations used in the tables below denote: • ABUTH Abutilon theophrasti • AMARE Amaranthus retroflexus • ECHCG Echinochloa crus galli • PHBPU Phartoitis purpureum • STEME Stellaria media • ALOMY Alopecurus myosuroides • AVEFA Avena fatua • MATIN Matricaria inodora • POLCO Fallopia convolvulus • VERPE Veronica persica 1. Pre-emergence Herbicidal Action Against Harmful Plants Seeds” for “Seeds”

The subject of assay [12] is Echinochloa crus galli. The assay is described as above. To be noted: dosage 320 g/ha.
Text: as §1, with “The abbreviations used in the tables below denote: • ABUTH Abutilon theophrasti • AMARE Amaranthus retroflexus • ECHCG Echinochloa crus galli • PHBPU Phartoitis purpureum • STEME Stellaria media • ALOMY Alopecurus myosuroides • AVEFA Avena fatua • MATIN Matricaria inodora • POLCO Fallopia convolvulus • VERPE Veronica persica 1. Pre-emergence Herbicidal Action Against Harmful Plants Seeds” for “Seeds”

Assay [13] deals with Matricaria inodora. The assay is described as above. The settings on record: dosage 320 g/ha.
Text: as §1, with “The abbreviations used in the tables below denote: • ABUTH Abutilon theophrasti • AMARE Amaranthus retroflexus • ECHCG Echinochloa crus galli • PHBPU Phartoitis purpureum • STEME Stellaria media • ALOMY Alopecurus myosuroides • AVEFA Avena fatua • MATIN Matricaria inodora • POLCO Fallopia convolvulus • VERPE Veronica persica 1. Pre-emergence Herbicidal Action Against Harmful Plants Seeds” for “Seeds”

Another assay relates to Fallopia convolvulus. As to the kind of experiment: Post-emergence herbicidal action against harmful plants. To be noted: 504 h, dosage 80 g/ha, visual rating after about 3 weeks (Table E), read-out: Herbicidal action against POLCO.
Text: as §2

Assay [14] relates to Echinochloa crus galli. The assay is described as above. The settings on record: 504 h, dosage 80 g/ha, visual rating after about 3 weeks (Table E), read-out: Herbicidal action against ECHCG.
Text: as §2

Setting [15] is: dosage 80 g/ha, visual assessment after 3 weeks (Table B).
Setting [16] is: dosage 20 g/ha, visual rating after about 3 weeks (Table F).
The mark [17] stands for this setting: dosage 320 g/ha, visual assessment after 3 weeks (Table C).
Setting [18] is: visual assessment after 3 weeks (Table C).
Setting [19] is: dosage 80 g/ha, visual rating after about 3 weeks (Table E).

SMILES strings stand for the structures.

As for `CCS(=O)(=O)c1ccc(C(=O)C2=C(O)CCCC2=O)c(Cl)c1OC(C)C(=O)NC` (centres unmarked) [Compound S11, reference compound], the figures for the “Herbicidal action against VIOTR” value with VIOTR [1] (setting [15]) and with VIOTR [8] (setting [16]) were 40% and 70%, respectively. Moreover, the pest or weed control at 80 g/ha in the assay on Stellaria media [2] (setting [15]) amounted to 30%; in the assay on Abutilon theophrasti (Abutilon theophrasti, 504 h, dosage 80 g/ha, visual assessment after 3 weeks (Table B), read-out: Herbicidal action against ABUTH), 70%. For the same molecule, the pest or weed control at 20 g/ha with Amaranthus retroflexus [3] is 90%; in the assay with Veronica persica [4], 90%; with Stellaria media [5] it was 80%; with Phartoitis purpureum [6] (setting [16]), 70%; with Matricaria inodora [7] (setting [16]), 70%.

In the case of `CCS(=O)(=O)c1ccc(C(=O)C2=C(O)CCCC2=O)c(C(F)(F)F)c1OCC(=O)N(C)OC` [Compound E8], the “Herbicidal action against VIOTR” value in the assay on VIOTR [1] (setting [17]) stood at 100%; with VIOTR [8] (setting [19]), 90%. For the same molecule, the “Herbicidal action against SETVI” value in the assay on SETVI was determined as 90%. Besides, the pest or weed control at 320 g/ha in the assay on Amaranthus retroflexus [9] is 100%; in the assay on Veronica persica [10] it was 100%; with Stellaria media [2] (dosage 320 g/ha, visual assessment after 3 weeks (Table A)), 100%; in the assay on Echinochloa crus galli [12] (Echinochloa, 504 h, visual assessment after 3 weeks (Table A), read-out: Herbicidal action against ECHCG), 100%; in the assay with Abutilon theophrasti (Abutilon theophrasti, 504 h, dosage 320 g/ha, visual assessment after 3 weeks (Table A), read-out: Herbicidal action against ABUTH), 100%; in the assay on Matricaria inodora [13] (Tripleurospermum inodorum, 504 h, visual assessment after 3 weeks (Table A), read-out: Herbicidal action against MATIN) it was 100%. Moreover, the “Herbicidal action against PHPBU” value in the assay with Phartoitis purpureum [11] worked out at 90%. In the assay with Echinochloa crus galli [12] (setting [18]), the “Herbicidal action against ECHCG” value turned out to be 100%. Also, the “Herbicidal action against ABUTH” value with Abutilon theophrasti (setting [17]) worked out at 100%. For the same molecule, the “Herbicidal action against MATIN” value in the assay with Matricaria inodora [13] (setting [18]) stood at 100%. Besides, the pest or weed control at 80 g/ha was determined as 90% with Fallopia convolvulus, 80% in the assay with Phartoitis purpureum [6] (setting [19]), 90% in the assay with Echinochloa crus galli [14] and 90% in the assay with Matricaria inodora [7] (setting [19]).
